Source: US8965708B2, “Method for the treatment of acquired lymphedema” (The Board of Trustees of the Leland Stanford Junior …, priority 2006, dated 2015)
“Also recorded” adds a separate entry of the source.

Key:
[1] = Log Kow; assay type: physicochemical
[2] = Permeation through the stratum corneum of human cadaver skin; assay type: in vitro ADME; conditions: cumulative permeation over time, FIG. 33
Excerpt: FIG. 33. Ketoprofen chemistry. (A) Chemical formula of ketoprofen. (B) Ester modification to improve bioavailability. […] Closed triangles: Methyl ester. Open circles: ethyl ester. Open squares: isopropyl ester. x axis=time in hours.

[3] = system: tail lymphedema in SKH-1 mice; assay: Histology and histomorphometric quantitation of epidermal thickness (Example 4); assay type: in vivo, mouse; conditions: for histological changes in mice with lymphedema: hematoxylin/eosin
Procedure: Immediately after sacrifice, 0.5-g sections of tail were harvested for histological analysis and RNA extraction. Sections extended from a point 4 mm proximal to the surgical incision to 8 mm beyond it. The specimens were fixed overnight in 4% paraformaldehyde, embedded in paraffin, cut into 5-μm sections, stained with hematoxylin and eosin (Richard-Allan Scientific, Kalamazoo, Mich.), and examined by light microscopy.
Epidermal thickness was measured serially using digital images of histology slides stained with hematoxylin and eosin. Processing and analysis were performed using Adobe Photoshop CS4 and ImageJ (http://rsbweb.nih.gov/ij) as previously described with modifications (Sanders J E, et al. Comput Methods Programs Biomed. 1999; 59:167-180). Quantitative measurements were imported to Prism 5 software (GraphPad Software Inc., La Jolla, Calif.) for statistical analysis and graphing.

[4] = system: tail lymphedema in SKH-1 mice; assay: Tail volume quantitation, NSAID / sTNF-R1 treatment (Example 4); assay type: in vivo, mouse
Procedure: Tail lymphedema was induced in female hairless, immunocompetent SKH-1 mice (Charles River Laboratories, Boston, Mass.) as described. The mice were anesthetized with a solution of ketamine, xylazine, and saline (0.07 ml i.p.). The skin of the tail was circumferentially incised 16 mm distal to its base. The major lymphatic trunks were identified by subcutaneous injection of methylene blue distal to the incision and ablated by limited cautery. The mice were carefully monitored for any visceral signs of distress. Sham surgery controls were treated identically, but without lymphatic cautery. […] All mice were sacrificed in accordance with American Veterinary Medical Association guidelines for rodent euthanasia after day 11 days of observation. After sacrifice, 500 mg sections of the tail were harvested for paraffin embedding and RNA extraction. For all in vivo experiments, housing, husbandry and experimentation were in strict accordance with the Animal Welfare Act and the Guide for the Care and Use of Laboratory Animals.
Sham surgery and normal controls were treated identically with the NSAID (n=8 per group), sTNF-R1 (n=11 per group), or PBS (n=11 normal controls, n=8 sham surgery controls).
Tail volume was measured serially in each mouse, using a digital photographic application of the truncated cone approximation as described.

[5] = system: TNF-α, MCP-1, VEGF-C, VEGF-D, VEGFR-3, Prox1, LYVE-1 expression; assay: Targeted gene expression analysis by quantitative real-time RT-PCR in tail skin; assay type: in vivo, mouse
Procedure: Primers and probes were from Assays-on-Demand (Applied Biosystems, Foster City, Calif.). cDNA was synthesized from 5 μg of total RNA with Taqman reverse-transcription reagents (Applied Biosystems) and amplified in triplicate at 50° C. for 2 minutes and 95° C. for 10 minutes, followed by 40 cycles of 95° C. for 15 seconds and 60° C. for 1 minute. Reactions without template and/or enzyme were used as negative controls. 18S ribosomal RNA served as an internal control. A standard curve derived from embryonic mouse RNA was plotted for each target gene by linear regression using SPSS software (v. 11.0, Applied Biosystems). RNA quantity was expressed relative to the corresponding 18S control. Fold differences were calculated by dividing the experimental results by the pooled normal results and were plotted on a log 10 scale.

[6] = system: cytokine levels in tail skin; assay: Tissue cytokine assays (Luminex) in tail skin homogenates; assay type: in vivo, mouse
Procedure: Cytokine levels in tail skin were measured in normal controls and mice with untreated, NSAID-treated, and sTNF-R1-treated lymphedema (n=3 per group) sacrificed on postoperative day 7. The Luminex LabMap200 System was used to measure the levels of 42 cytokines from the supernatant of tissue homogenates. Multiplex cytokine kits were purchased from Panomics (Fremont, Calif.), and the assay was performed according to the manufacturer's recommendation with the following modifications: 25-50 μl of samples, standards, and controls were added in duplicate to 96-well filter plates pre-configured with a panel of anti-cytokine antibodies covalently linked to unique polystyrene beads. The plate was incubated overnight at 4° C. in the dark with shaking at 500 rpm, vacuum aspirated, and washed three times with 140 μl of wash buffer to remove unbound antigen. Biotinylated detection antibody solution (25 μl) was added to each well and incubated for 1 hour with shaking at 500 rpm at room temperature. The plate was incubated with 50 μl of streptavidin-phycoerythrin for 35 minutes and then with 120 μl of reading buffer for 3 minutes at room temperature with shaking. After laser excitation, digital images of the bead array were captured with a CCD camera and analyzed on a computer workstation with BeadView software.

[7] = system: LYVE-1-positive lymphatic vessels; assay: LYVE-1 immunohistochemical staining, lymphatic vessel number and area; assay type: in vivo, mouse
Procedure: 5 μm-thick paraffin sections were de-paraffinized in xylene, re-hydrated in a graded series of ethanol, pretreated with target retrieval solution (Dako, Carpinteria, Calif.) in a pressure cooker, and incubated in a peroxidase block for 10 minutes. Sections were then incubated with rabbit polyclonal anti-LYVE-1 antibody (1:200, Upstate Cell Signaling Solutions, Lake Placid, N.Y.) for 1 hour at room temperature, followed by horseradish peroxidase (HRP)-conjugated secondary antibody for 30 minutes at room temperature and detection with DAB for 4 minutes (Envision System Kit, Dako). Tissue sections were counterstained with Gill 1 Hematoxylin (Richard-Allan Scientific, Kalamazoo, Mich.). for 15 seconds, then dehydrated in graded ethanol and coverslipped with CoverSafe (American Master*Tech, Lodi, Calif.).
5 μm-thick paraffin sections were prepared and stained for LYVE-1 as described in example 1, above.
Mean lymphatic vessel number was determined by averaging the number of total lymphatic vessels in all of the fields of each slide at 10× magnification. The observer was blinded to the treatment status of the animal in each case. Lymphedema was characterized by an increase in LYVE-1-positive vessel number/field that was not observed in normals or after VEGF-C-treatment: lymphedema, 7.3±4.0 (P=0.02 compared to normal); VEGF-C, 1.3±0.9 (N.S.); and normal, 1.0±0.8.
Lymphatic vessel area was quantitated according to the formula π·r1·r2. […] Both vessel number and size returned substantially to normal following exogenous administration of recombinant VEGF-C.

[8] = system: clearance of luc+ splenocytes from lymphedematous tails of FVB/N mice; assay: Functional in vivo bioluminescence imaging of immune traffic, VEGF-C study; parameters: species or system mouse
Procedure: Experimental lymphedema was created surgically in the tails of 20 FVB/N female wild type mice (Jackson Laboratories, […]), using the technique described above, and functionally compared with normal mice (n=8). The lymphedematous mice were treated with human recombinant VEGF-C or with saline, as described above, on post-surgical day 3. For in vivo bioluminescence imaging, spleens from transgenic luc+ heterozygous animals, expressing firefly luciferase under the control of a chicken beta-actin promoter, as previously described (Beilhack et al., 2005; Cao et al., 2004), were placed into single cell suspension. These single cell suspensions consisted of different hematopoietic lineages: ˜40% were CD19+ B cells, ˜20% CD4+ T cells, ˜10-15% were CD8+ T cells, 3% NK1.1+ NK cells and the rest were GR.1+ granulocytes, Mac-1+ macrophages, CD11c+ dendritic cells and rarer cell populations. 4×10^6 splenocytes (>97% CD45+) in PBS were injected in a volume of […] into the tail interstitium/emission]×100%. 1 cm caudal to the site of surgery, in lymphedema mice and normal controls, respectively. […] The efficiency of cellular lymphatic drainage was determined by direct imaging of light emission, with quantitation of the relative change in light emission from that measured at 20 hours after cell injection, as follows: relative photon emission=[emissionday 7/emission20 hours]×100%.

[9] = system: post-surgical lymphedema in the tails of SKH-1 mice; assay: Histology of tail sections (H&E), VEGF-C study; assay type: in vivo, mouse; conditions: day 11
Excerpt: For histological evaluation, 11 mice were sacrificed on Day 11 of observation. Immediately following sacrifice, 0.5 gm sections of the tail were harvested. Sections extended from a point 4 mm proximal to the surgical incision to 8 mm beyond it. The specimens were fixed overnight in 4% paraformaldehyde. After paraffin embedding, 5 μm sections were stained with hematoxylin and eosin (H&E, Richard-Allan Scientific). After deparaffinization in xylene, sections were rehydrated though a series of graded alcohol steps starting with 100% EtOH and ending in 50% EtOH. Slides remained in toluidine blue for 2 minutes and were then dehydrated through graded alcohol washes and covered with Cytoseal (Richard Allan Scientific).

[10] = system: post-surgical lymphedema in the tails of SKH-1 mice; assay: Tail volume quantitation, VEGF-C in experimental lymphedema (Example 3); assay type: in vivo, mouse; conditions: single subcutaneous dose of 200 ng on post-surgical day 3
Procedure: Post-surgical lymphedema was experimentally created in the tails of female hairless, immunocompetent SKH-1 mice (Charles River Laboratories, Boston Mass.) as described in example 1, above. Therapeutic VEGF-C lymphangiogenesis in experimental lymphedema. On post-surgical day 3, the treated animal subjects received parenteral recombinant human VEGF-C (R&D Systems Inc., Minneapolis, Minn.). Each animal received a single subcutaneous dose of 200 ng of the growth factor (2 mg/mL), equally divided between the proximal and distal wound edges. Untreated lymphedema subjects received subcutaneous saline analogously administered.
Tail volume was serially quantitated in 19 mice divided into four treatment categories: normal, untreated lymphedema, VEGF-C-treated lymphedema, and surgical sham controls. For animals who had surgical intervention, this was defined to have occurred on day 0. All of the mice had quantitation of baseline tail volume; thereafter, volume was quantitated at defined time points: days 2, 4, 7, 9, 11, 14, 16, 18, 21, 23 28, 35, 42, 50, 57, 63, 65, 67 and 71. […] A single digital image of each tail was recorded with an OLYMPUS D520 Zoom digital camera at 1600×1200SHQ resolution. […] The diameter of the tail was digitally, serially quantitated at distances of 8 mm beginning at the proximal end of the tail. […]

CCOC(=O)C(C)c1cccc(C(=O)c2ccccc2)c1 (centres unmarked) [ketoprofen ethyl ester]
Log Kow [1]: 4.14

CC(C)OC(=O)C(C)c1cccc(C(=O)c2ccccc2)c1 (centres unmarked) [ketoprofen isopropyl ester]
Log Kow [1]: 4.56

COC(=O)C(C)c1cccc(C(=O)c2ccccc2)c1 (centres unmarked) [ketoprofen methyl ester]
Log Kow [1]: 3.65
ability to permeate the stratum corneum of human cadaver skin [2]: most penetration

pegsunercept [sTNF-R1]
epidermal thickness (ET) compared to untreated LY mice ([3]; FIG. 14B): significantly increased
epidermal thickness increased, compared to untreated mice with lymphedema ([3]; day 11): 16.0±2.5%
histological changes in mice with lymphedema ([3]; day 11, listed as sTNFR1): no discernible amelioration
histological changes in mice with lymphedema ([3]; day 11, listed as sTNFR-1): exacerbates the pathology
tail volume, % of baseline ([4]; day 7, lymphedema mice, s.c. every other day from day 3): 183.7±26.8%
edematous response (tail volume) of lymphedema mice ([4]; lymphedema mice, systemic s.c. treatment): significantly more edematous
effect on tail volume in normal and sham surgery mice ([4]; normal and sham surgery mice): no discernable effect
expression of other targeted genes (other than TNF-α) ([5]; day 11): did not affect other genes
TNF-α expression (mRNA) ([5]; day 11, lymphedema mice): reduced TNF-α expression to control levels; also recorded: downregulated
VEGF-C expression (mRNA) ([5]; lymphedema mice): decreased
VEGFR-3 expression ([5]; lymphedema mice): decreased
MCP-1 tissue levels (protein) ([6]; postoperative day 7): further increased
MCP-3 tissue levels (protein) ([6]; postoperative day 7): significantly reduced
eotaxin tissue levels ([6]; postoperative day 7): decreased
MCP-3 tissue levels (protein) ([6]; postoperative day 7, listed as sTNFR-1): inhibited

B1: VEGF-C: parenteral recombinant human VEGF-C (R&D Systems Inc.), growth factor (protein, UniProt P49767 112-227, looked up)
Vascular endothelial growth …: AHYNTEILKSIDNEWRKTQCMPREVCIDVGKEFGVATNTFFKPPCVSVYRCGGCCNSEGLQCMNTSTSYLSKTLFEITVPLSQGPKPVTISFANHTSCRCMSKLDVYRQVHSIIRR
LYVE-1-positive vessel number/field ([7]; 10x magnification, day 11): 1.3±0.9
average lymphatic area/field (LYVE-1-positive vessel area) ([7]; formula π·r1·r2, n=3): 2992±1311 μm^2
size and number of LYVE-1-positive skin lymphatics ([7]; vs untreated lymphedema): reduction in the observed size and number of these skin lymphatics; also recorded: reduction in the number and size of LYVE-1-positive vessels
clearance of bioluminescent immunocytes (immune traffic) ([8]; day 7 post-injection): ameliorated
relative photon density, % of the observed value 20 hours post-injection ([8]; day 7 post-injection (post-operative day 14), n=12): 24±9%
histological pattern of tail tissue [9]: substantial reversion to the normal pattern
mean tail volume compared with untreated lymphedema [10]: significant decrease in volume; also recorded: diminution in the mean tail volume; also recorded: volume reduction, compared with untreated lymphedema, was evident by day 7
